Results from US20030104024A1, “Urea and nitrogen based compounds as feeding stimulants/aggregants and masking agents of unpalatable chemicals for subterranean termites” (priority 2000, published 2003).

What was measured:
C. formosanus = details: baits containing the termiticide; cited from earlier work
Formosan termite = assay: choice test of the colorant (feeding deterrence); assay type: in vivo, Coptotermes formosanus; details: neutral red at 1000 ppm in bait matrix
Procedure: (§1) The basic formulation of the matrix was prepared the same day that the experiment was set up, as reported by Rojas et al. (U.S. patent application Ser. Nos. 09/294,499 and 09/625,940, ibid). The colorant used was neutral red (Product number 72210, Fluka Chemical Corp., Milwaukee, Wis.) at 1000 ppm.

[1] = test system: Formosan subterranean termites; assay: two choice feeding experiment: blank bait matrix vs. matrix with neutral red and urea; assay type: in vivo, Coptotermes formosanus; details: urea 0-1280 ppm added to matrix with 1,000 ppm neutral red; groups of 300 termites; 30 d; FIG. 1
Procedure: as §1
Under a laminar flow hood, the sterile cellulose was weighed using a Oahus portable plus scale (Fisher Scientific, Pittsburgh, Pa.) into a sterile 600 ml glass beaker. The colorant was weighed using a Mettler Toledo balance (PB303, Fisher Scientific, Pittsburgh, Pa.) and added to the pre-weighed cellulose. The cellulose with the colorant were homogenized using a sterile stainless steel spatula.
The sterile liquid mixture was measured into a 50 ml sterile screw cap conical tube (Product number 62.547.004 PP, Sarstedt, Inc., Newton, N.C.) and the urea was added at each of the following doses: 0, 10, 20, 40, 80, 160, 320, 640, and 1280 ppm; then it was added to the colored cellulose to a 7:3 ratio, (liquid-urea:colored-cellulose) and mixed to homogenize. […]
One treatment dish and one control dish were placed in the center of the top dish, taking care that the holes were facing each other and at least 1 cm apart. […] Matrix consumption was measured 30 d after by removing the left over bait matrix from the dishes and weighed it using a Sartorius balance (BP 211D, VWR Scientific, Atlanta, Ga.). […]

SMILES | suppression of large colonies (C. formosanus) | further results
O=C(NC(=O)c1c(F)cccc1F)Nc1ccc(Cl)cc1 [diflubenzuron] | particularly effective | –
O=C(NC(=O)c1c(F)cccc1F)Nc1cc(Cl)c(OC(F)(F)C(F)F)c(Cl)c1 [hexaflumuron] | particularly effective | –
Cc1cc2nc3ccc(N(C)C)cc3nc2cc1N.Cl [neutral red] | – | feeding deterrence to the Formosan termite (Formosan termite): moderately deterrent
NC(N)=O [urea] | – | effect of urea on feeding deterrence induced by the colorant (consumption difference, control minus colored matrix) [1]: significantly affected the feeding deterrence induced by the colorant
